The molecules below were run on MDA-MB-468 (assay: normalised response (% of control), CellTiter-Glo; higher = more viable cells (100 = DMSO, 0 = benzethonium chloride kill control)). Settings: incubation time: 72 h.
How it was run: (§1)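 Two readouts were taken after 72 h: CellTox Green fluorescence (485/520 nm) first, then CellTiter-Glo luminescence after 10 min at room temperature. Breast cancer cell lines had been seeded as 20 µl suspension into 384-well plates holding compound at 5 concentrations in 10-fold steps across a compound-specific 10,000-fold range. Each value is a normalised signal at a single concentration, with plates scaled to 0.1 % DMSO (100) and a positive kill control (0).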
Work on `CC(C)n1cnc2c(NCCc3ccc(O)cc3)nc(-c3csc4ccccc34)nc21` [StemRegenin 1] (1 nM) yielded a normalised response of 92.6%. Molecule `CC(C)n1cnc2c(NCCc3ccc(O)cc3)nc(-c3csc4ccccc34)nc21` [StemRegenin 1] (10 nM) has a normalised response of 97.3%.

Each molecule was assayed on CAL-120 in the same assay as above. Settings: incubation time: 72 h.
How it was run: as §1
`CN[C@@H](C)C(=O)N[C@H]1CN(C(=O)CC(C)C)CC[C@H]2CC[C@@H](C(=O)NC(c3ccccc3)c3ccccc3)N2C1=O` [AT-406] (1000 nM) showed a normalised response of 85.6%. In the case of `CC1(COc2ccc3c(c2)ncn3-c2ccc3cccc(N4CCC(N)CC4)c3n2)COC1` [Crenolanib] (1000 nM), the normalised response was 86.7%. Molecule `CC(C)(C)c1nc(-c2cccc(NS(=O)(=O)c3c(F)cccc3F)c2F)c(-c2ccnc(N)n2)s1` [Dabrafenib] (250 nM) has a normalised response of 36.6%. `Cc1nc(C(=O)NCC(=O)O)c(O)c2ccc(Oc3ccccc3)cc12` [FG-4592] (1000 nM) showed a normalised response of 102%. `CC[C@H](CO)Nc1nc(NCc2ccccc2)c2ncn(C(C)C)c2n1` [Seliciclib] (1000 nM) was tested, and the normalised response was 97.4%. In the case of `C=CCN(/C=C1/C(=O)O[C@H](COC)[C@@]2(C)C1=C(O)C(=O)C1=C2[C@H](OC(C)=O)C[C@]2(C)C(=O)CC[C@@H]12)CC=C` [Sonolisib] (1 nM), the normalised response was 107%. `C=CCN(/C=C1/C(=O)O[C@H](COC)[C@@]2(C)C1=C(O)C(=O)C1=C2[C@H](OC(C)=O)C[C@]2(C)C(=O)CC[C@@H]12)CC=C` [Sonolisib] (10 nM) showed a normalised response of 101%. Molecule `C=CCN(/C=C1/C(=O)O[C@H](COC)[C@@]2(C)C1=C(O)C(=O)C1=C2[C@H](OC(C)=O)C[C@]2(C)C(=O)CC[C@@H]12)CC=C` [Sonolisib] (1000 nM) has a normalised response of 102%. With `O=[N+]([O-])c1ccc2c(c1)S(=O)(=O)C=C2` [Stattic] (5 nM) the normalised response was 95.3%. Work on `CC(C)n1cnc2c(NCCc3ccc(O)cc3)nc(-c3csc4ccccc34)nc21` [StemRegenin 1] (1 nM) yielded a normalised response of 96.6%. `CC(C)n1cnc2c(NCCc3ccc(O)cc3)nc(-c3csc4ccccc34)nc21` [StemRegenin 1] (10 nM) gave a normalised response of 97.4%.

Each molecule was assayed on HCC1599 in the same assay as above. Settings: incubation time: 72 h.
How it was run: as §1
For `CN[C@@H](C)C(=O)N[C@H]1CN(C(=O)CC(C)C)CC[C@H]2CC[C@@H](C(=O)NC(c3ccccc3)c3ccccc3)N2C1=O` [AT-406] (1000 nM), the normalised response was 106%. For `CC1(COc2ccc3c(c2)ncn3-c2ccc3cccc(N4CCC(N)CC4)c3n2)COC1` [Crenolanib] (1000 nM), the normalised response was 110%. `CC(C)(C)c1nc(-c2cccc(NS(=O)(=O)c3c(F)cccc3F)c2F)c(-c2ccnc(N)n2)s1` [Dabrafenib] (250 nM) gave a normalised response of 107%. In the case of `Cc1nc(C(=O)NCC(=O)O)c(O)c2ccc(Oc3ccccc3)cc12` [FG-4592] (1000 nM), the normalised response was 117%. Molecule `CC[C@H](CO)Nc1nc(NCc2ccccc2)c2ncn(C(C)C)c2n1` [Seliciclib] (1000 nM) has a normalised response of 111%. `C=CCN(/C=C1/C(=O)O[C@H](COC)[C@@]2(C)C1=C(O)C(=O)C1=C2[C@H](OC(C)=O)C[C@]2(C)C(=O)CC[C@@H]12)CC=C` [Sonolisib] (1 nM) showed a normalised response of 116%. Molecule `C=CCN(/C=C1/C(=O)O[C@H](COC)[C@@]2(C)C1=C(O)C(=O)C1=C2[C@H](OC(C)=O)C[C@]2(C)C(=O)CC[C@@H]12)CC=C` [Sonolisib] (10 nM) has a normalised response of 95.1%. Molecule `C=CCN(/C=C1/C(=O)O[C@H](COC)[C@@]2(C)C1=C(O)C(=O)C1=C2[C@H](OC(C)=O)C[C@]2(C)C(=O)CC[C@@H]12)CC=C` [Sonolisib] (1000 nM) has a normalised response of 110%. Molecule `O=[N+]([O-])c1ccc2c(c1)S(=O)(=O)C=C2` [Stattic] (5 nM) has a normalised response of 114%. `CC(C)n1cnc2c(NCCc3ccc(O)cc3)nc(-c3csc4ccccc34)nc21` [StemRegenin 1] (1 nM) gave a normalised response of 99.6%. `CC(C)n1cnc2c(NCCc3ccc(O)cc3)nc(-c3csc4ccccc34)nc21` [StemRegenin 1] (10 nM) showed a normalised response of 79.5%.

These molecules were tested on HDQ-P1 in the same assay as above. Settings: incubation time: 72 h.
How it was run: as §1
Work on `CN[C@@H](C)C(=O)N[C@H]1CN(C(=O)CC(C)C)CC[C@H]2CC[C@@H](C(=O)NC(c3ccccc3)c3ccccc3)N2C1=O` [AT-406] (1000 nM) yielded a normalised response of 83.1%. Work on `CC1(COc2ccc3c(c2)ncn3-c2ccc3cccc(N4CCC(N)CC4)c3n2)COC1` [Crenolanib] (1000 nM) yielded a normalised response of 108%. With `CC(C)(C)c1nc(-c2cccc(NS(=O)(=O)c3c(F)cccc3F)c2F)c(-c2ccnc(N)n2)s1` [Dabrafenib] (250 nM) the normalised response was 115%. With `Cc1nc(C(=O)NCC(=O)O)c(O)c2ccc(Oc3ccccc3)cc12` [FG-4592] (1000 nM) the normalised response was 116%. `CC[C@H](CO)Nc1nc(NCc2ccccc2)c2ncn(C(C)C)c2n1` [Seliciclib] (1000 nM) was tested, and the normalised response was 101%. In the case of `C=CCN(/C=C1/C(=O)O[C@H](COC)[C@@]2(C)C1=C(O)C(=O)C1=C2[C@H](OC(C)=O)C[C@]2(C)C(=O)CC[C@@H]12)CC=C` [Sonolisib] (1 nM), the normalised response was 95.6%. `C=CCN(/C=C1/C(=O)O[C@H](COC)[C@@]2(C)C1=C(O)C(=O)C1=C2[C@H](OC(C)=O)C[C@]2(C)C(=O)CC[C@@H]12)CC=C` [Sonolisib] (10 nM) gave a normalised response of 94.4%. Molecule `C=CCN(/C=C1/C(=O)O[C@H](COC)[C@@]2(C)C1=C(O)C(=O)C1=C2[C@H](OC(C)=O)C[C@]2(C)C(=O)CC[C@@H]12)CC=C` [Sonolisib] (1000 nM) has a normalised response of 101%. Work on `O=[N+]([O-])c1ccc2c(c1)S(=O)(=O)C=C2` [Stattic] (5 nM) yielded a normalised response of 98.8%. In the case of `CC(C)n1cnc2c(NCCc3ccc(O)cc3)nc(-c3csc4ccccc34)nc21` [StemRegenin 1] (1 nM), the normalised response was 103%. In the case of `CC(C)n1cnc2c(NCCc3ccc(O)cc3)nc(-c3csc4ccccc34)nc21` [StemRegenin 1] (10 nM), the normalised response was 99.6%.

These molecules were tested on HCC1937 in the same assay as above. Settings: incubation time: 72 h.
How it was run: as §1
`CN[C@@H](C)C(=O)N[C@H]1CN(C(=O)CC(C)C)CC[C@H]2CC[C@@H](C(=O)NC(c3ccccc3)c3ccccc3)N2C1=O` [AT-406] (1000 nM) showed a normalised response of 94%. `CC1(COc2ccc3c(c2)ncn3-c2ccc3cccc(N4CCC(N)CC4)c3n2)COC1` [Crenolanib] (1000 nM) showed a normalised response of 100%. Molecule `CC(C)(C)c1nc(-c2cccc(NS(=O)(=O)c3c(F)cccc3F)c2F)c(-c2ccnc(N)n2)s1` [Dabrafenib] (250 nM) has a normalised response of 105%. For `Cc1nc(C(=O)NCC(=O)O)c(O)c2ccc(Oc3ccccc3)cc12` [FG-4592] (1000 nM), the normalised response was 101%.
